Measurements reported in US4894225A (priority 1987, dated 1990).

System: MX-1 tumors (human breast adenocarcinoma-derived tumor cell line)
Details: in vivo

## O=P1(N(CCCl)CCCl)NCCCO1 (stereo not shown) [cytoxan]
  % TGI (tumor growth inhibition vs PBS): 90.5%
  deaths: 0/5
  ΔBW (change in body weight): 1.11
  ΔTW (change in tumor weight): 2.4
